Data as given in patent US9447086B2, “6-amino acid heteroaryldihydropyrimidines for the treatment and prophylaxis of hepatitis B virus infection” (priority 2012, dated 2016).
Values after ≈ are worked out from the molar mass of the structure shown. Read-outs that look alike come from different tables or passages of the source. Values belong to the compound of their own block, whether it stands above or below them.

Tests used:
HBV = test: Anti-HBV activity in vitro in HepG2.2.15 cells (extracellular HBV DNA by qPCR); format: cell-based, Hepatitis B virus; details: Hepatitis B virus
Text: HepG2.2.15 and HepDE19 are stably-transfected cell lines containing the HBV genome. Both cell lines are derived from the hepatoblastoma cell line Hep G2 (American Type Culture Collection, ATCC® HB-8065™) by the published procedures described in references: MA Selles et al. Proc. Natl. Acad. Sci. USA 1987, 84, 1005-1009 and H Guo et al. Journal of Virology 2007, 81, 12472-12484, respectively. Both cell lines were maintained in Dulbecco's modified Eagle's medium (DMEM)-F12 medium supplemented with 10% fetal bovine serum, 100 U/mL penicillin, 100 μg/mL streptomycin, and 0.5 mg/mL of G418.
While HepG2.2.15 cells constitutively support HBV replication and production of virus particles, HepDE19 cells are inducible by tetracycline. Addition of 1 μg/mL tetracycline in culture medium suppresses HBV replication in HepDE19 cells, whereas switching to tetracycline-free medium resumes this process.
HepG2.2.15 cells were seeded into 96-well plates (3×10^4 cells in 100 μl media per well) and incubated overnight at 37° C. The test compounds were serially half-log diluted in DMSO, then diluted 100 times in culture media. 100 μL diluted compounds were added into the plates to reach 0.5% final concentration of DMSO in every well. Five days after compound treatment, culture supernatant was collected for further analysis.
For quantitative PCR detection of extracellular HBV DNA, 100 μL culture supernatant was collected and processed in MagNA Pure 96 Nucleic Acid Purification System (Roche Applied Science) for viral DNA extraction. The extracted samples were subjected to HBV DNA quantification by qPCR.
The compounds of the present invention were tested for their capacity to inhibit a HBV activity and activation as described herein.

[1] = Lyophilisation solubility assay (Lysa); format: physicochemical; details: pH 6.5, aqueous buffer, thermodynamic from solid
Procedure: The aqueous solubility is an important physico-chemical property that plays a significant role in various physical and biological processes. It is desirable to have good solubility which enables good permeability and gastric and intestinal absorption, linear dose proportionality, less PK variability, and easy formulation for PD/PK studies. […] Lyophilisation solubility assay (Lysa) is a well adopted high throughput assay to measure compound solubility in industry.
Samples are prepared in duplicate from 10 mM DMSO stock solutions. After evaporation of DMSO with a centrifugal vacuum evaporator, the residue is solved in 0.05 M phosphate buffer (pH 6.5), stirred for one hour and shaken for two hours. After one night, the solutions is filtered using a microtiter filter plate and the filtrate and its 1/10 dilution are then analyzed by direct UV measurement or by HPLC-UV. […] The results are in μg/mL.

[2] = Metabolic stability study in human microsome; format: in vitro ADME
Procedure: Human Microsomes were preincubated with test compound for 10 min at 37° C. in 100 mM phosphate buffer, pH 7.4. The reactions were initiated by adding NADPH or NADPH regenerating system to give a final incubation volume of 400 μL. For NADPH system, the final incubations contained 1 μM test compound, 0.5 mg/mL liver microsomal protein, 1 mM NADPH in 100 mM phosphate buffer, pH 7.4. For the NADPH regenerating system, the final incubations contained 1 μM test compound, 0.5 mg/mL liver microsomal protein, 3 mM glucose 6-phosphate, 1 mM NADP, 3 mM MgCl2 and 0.05 mg/mL glucose 6-phosphate dehydrogenase in 100 mM phosphate buffer, pH 7.4. After incubation times of 0, 3, 6, 9, 15 and 30 minutes at 37° C., 50 μL samples was removed and transferred to 150 μL methanol solution which was maintained at 4° C. containing 2 μM tolbutamide (internal standard) to terminating the reaction. Following precipitation and centrifugation, the amount of compound remaining in the samples were determined by LC-MS/MS. Controls of no NADPH or NADPH regenerating system at zero and 30 min were also prepared and analyzed.

[3] = HepG2.2.15 cells, in-house data, read-out: EC50

SMILES: COC(=O)C1=C(CN2CC(F)(F)C[C@H]2C(=O)O)NC(c2nccs2)=N[C@H]1c1ccc(Br)cc1Cl [Example 29, (R)-4-(4-Bromo-2-chloro-phenyl)-6-((S)-2-carboxy-4,4-difluoro-pyrrolidin-1-ylmethyl)-2-thiazol-2-yl-1,4-dihydro-pyrimidine-5-carboxylic acid methyl ester]
EC50 (HBV; [3]): 28 nM
solubility thermodynamic ([1]; phosphate buffer): 420 µg/mL (≈ 729 µM)
Human Hepatic Clearance [2]: 7.65 mL/min/kg

SMILES: COC(=O)C1=C(CN2CC(F)(F)CC[C@@H]2C(=O)O)NC(c2nccs2)=N[C@H]1c1cccc(F)c1Cl [Example 110, (R)-6-((R)-2-Carboxy-5,5-difluoro-piperidin-1-ylmethyl)-4-(2-chloro-3-fluoro-phenyl)-2-thiazol-2-yl-1,4-dihydro-pyrimidine-5-carboxylic acid methyl ester]
EC50 (HBV; [3]): 42 nM
solubility thermodynamic ([1]; phosphate buffer): > 661 µg/mL
Human Hepatic Clearance [2]: 2.41 mL/min/kg

SMILES: CCOC(=O)C1=C(CN2CC(F)(F)C[C@H]2C(=O)O)NC(c2nccn2C)=N[C@H]1c1ccc(F)c(F)c1 [Example 56, (S)-6-((S)-2-Carboxy-4,4-difluoro-pyrrolidin-1-ylmethyl)-4-(3,4-difluoro-phenyl)-2-(1-methyl-1H-imidazol-2-yl)-1,4-dihydro-pyrimidine-5-carboxylic acid ethyl ester]
EC50 (HBV; [3]): 15 nM
solubility thermodynamic ([1]; phosphate buffer): > 645 µg/mL
Human Hepatic Clearance [2]: 2.44 mL/min/kg

SMILES: COC(=O)C1=C(CN2CCOC[C@H]2C(=O)O)NC(c2nccs2)=N[C@H]1c1ccc(Br)c(F)c1F [Example 45, (5)-4-[(R)-6-(4-Bromo-2,3-difluoro-phenyl)-5-methoxycarbonyl-2-thiazol-2-yl-3,6-dihydro-pyrimidin-4-ylmethyl]-morpholine-3-carboxylic acid]
EC50 (HBV; [3]): 28 nM
solubility thermodynamic ([1]; phosphate buffer): > 695 µg/mL
Human Hepatic Clearance [2]: 4.69 mL/min/kg

SMILES: CCOC(=O)C1=C(CN2CCOC[C@H]2C(=O)O)NC(c2nccs2)=N[C@H]1c1ccc(Cl)c(Br)c1 [Example 124, (3S)-4-[[(4S)-4-(3-Bromo-4-chlorophenyl)-5-ethoxycarbonyl-2-(1,3-thiazol-2-yl)-1,4-dihydropyrimidin-6-yl]methyl]morpholine-3-carboxylic acid]
EC50 (HBV; [3]): 29 nM
solubility thermodynamic ([1]; phosphate buffer): > 655 µg/mL
Human Hepatic Clearance [2]: 2.17 mL/min/kg

SMILES: COC(=O)C1=C(CN2CCOC[C@@]2(C)C(=O)O)NC(c2nccs2)=N[C@H]1c1ccc(F)c(F)c1Cl [Example 78, (S)-4-[(R)-6-(2-Chloro-3,4-difluoro-phenyl)-5-methoxycarbonyl-2-thiazol-2-yl-3,6-dihydro-pyrimidin-4-ylmethyl]-3-methyl-morpholine-3-carboxylic acid]
EC50 (HBV; [3]): 26 nM
solubility thermodynamic ([1]; phosphate buffer): > 653 µg/mL
Human Hepatic Clearance [2]: 3.22 mL/min/kg

SMILES: CC(C)OC(=O)C1=C(CN2CCOC[C@H]2C(=O)O)NC(c2nccs2)=N[C@H]1c1ccc(F)c(F)c1 [Example 100, (S)-4-[(S)-6-(3,4-Difluoro-phenyl)-5-isopropoxycarbonyl-2-thiazol-2-yl-3,6-dihydro-pyrimidin-4-ylmethyl]-morpholine-3-carboxylic acid]
EC50 (HBV; [3]): 35 nM
solubility thermodynamic ([1]; phosphate buffer): > 656 µg/mL
Human Hepatic Clearance [2]: 0.1 mL/min/kg

SMILES: COC(=O)C1=C(CN2CC(F)(F)C[C@H]2C(=O)O)NC(c2nc(SC)cs2)=N[C@H]1c1ccc(F)cc1Cl [Example 62, (2S)-1-[[(4R)-4-(2-Chloro-4-fluorophenyl)-5-methoxycarbonyl-2-(4-methylsulfanyl-1,3-thiazol-2-yl)-1,4-dihydropyrimidin-6-yl]methyl]-4,4-difluoropyrrolidine-2-carboxylic acid]
EC50 (HBV; [3]): 14 nM
Human Hepatic Clearance [2]: 9.06 mL/min/kg

SMILES: CCOC(=O)C1=C(CN2CC(F)(F)C[C@H]2C(=O)O)NC(c2nccs2)=NC1c1ccc(F)c(F)c1Cl (stereo in doubt) [Example 55, (R)-6-((S)-2-Carboxy-4,4-difluoro-pyrrolidin-1-ylmethyl)-4-(2-chloro-3,4-difluoro-phenyl)-2-thiazol-2-yl-1,4-dihydro-pyrimidine-5-carboxylic acid ethyl ester]
EC50 (HBV; [3]): 1 nM
solubility thermodynamic ([1]; phosphate buffer): > 670 µg/mL

SMILES: CCOC(=O)C1=C(CN2CCO[C@H](C)[C@H]2C(=O)O)NC(c2nccs2)=N[C@H]1c1ccc(F)cc1Br [Example 116, (2R,3S)-4-[(R)-6-(2-Bromo-4-fluoro-phenyl)-5-ethoxycarbonyl-2-thiazol-2-yl-3,6-dihydro-pyrimidin-4-ylmethyl]-2-methyl-morpholine-3-carboxylic acid]
EC50 (HBV; HepG2.2.15): 1.8 nM
solubility thermodynamic [1]: > 735 µg/mL
Human Hepatic Clearance [2]: 0 mL/min/kg

SMILES: COC(=O)C1=C(CN2CC(F)(F)C[C@H]2C(=O)O)NC(c2ncc(F)cc2F)=N[C@H]1c1ccc(F)cc1Cl [Example 4, (R)-6-((S)-2-Carboxy-4,4-difluoro-pyrrolidin-1-ylmethyl)-4-(2-chloro-4-fluoro-phenyl)-2-(3,5-difluoro-pyridin-2-yl)-1,4-dihydro-pyrimidine-5-carboxylic acid methyl ester]
EC50 (HBV; [3]): 1.5 nM
solubility thermodynamic ([1]; phosphate buffer): > 700 µg/mL
Human Hepatic Clearance [2]: 5.11 mL/min/kg

SMILES: COC(=O)C1=C(CN2CC(F)(F)C[C@H]2C(=O)O)NC(c2ccc(F)cc2F)=N[C@H]1c1ccc(F)cc1Cl [Example 33, (R)-6-((S)-2-Carboxy-4,4-difluoro-pyrrolidin-1-ylmethyl)-4-(2-chloro-4-fluoro-phenyl)-2-(2,4-difluoro-phenyl)-1,4-dihydro-pyrimidine-5-carboxylic acid methyl ester]
EC50 (HBV; [3]): 23 nM
Human Hepatic Clearance [2]: 4.15 mL/min/kg

solubility thermodynamic ([1]; phosphate buffer): 590 µg/mL (≈ 1030 µM)
Human Hepatic Clearance [2]: 6.42 mL/min/kg
SMILES: CCOC(=O)C1=C(CN2CC(F)(F)C[C@H]2C(=O)O)NC(c2nccs2)=N[C@H]1c1cccc(F)c1Br [Example 67, (R)-4-(2-Bromo-3-fluoro-phenyl)-6-((S)-2-carboxy-4,4-difluoro-pyrrolidin-1-ylmethyl)-2-thiazol-2-yl-1,4-dihydro-pyrimidine-5-carboxylic acid ethyl ester]

solubility thermodynamic ([1]; phosphate buffer): > 610 µg/mL
Human Hepatic Clearance [2]: 5.52 mL/min/kg
SMILES: COC(=O)C1=C(CN2CCSC(C)(C)[C@H]2C(=O)O)NC(c2nccs2)=N[C@H]1c1ccc(F)cc1Cl [Example 90, (3R)-4-[[(4R)-4-(2-Chloro-4-fluoro-phenyl)-5-methoxycarbonyl-2-thiazol-2-yl-1,4-dihydropyrimidin-6-yl]methyl]-2,2-dimethyl-thiomorpholine-3-carboxylic acid]

solubility thermodynamic ([1]; phosphate buffer): > 620 µg/mL
Human Hepatic Clearance [2]: 6.33 mL/min/kg
SMILES: COC(=O)C1=C(CN2CC(F)(F)C[C@H]2C(=O)O)NC(c2cc(C)ccn2)=N[C@H]1c1ccc(F)cc1Cl [Example 8, (R)-6-((S)-2-Carboxy-4,4-difluoro-pyrrolidin-1-ylmethyl)-4-(2-chloro-4-fluoro-phenyl)-2-(4-methyl-pyridin-2-yl)-1,4-dihydro-pyrimidine-5-carboxylic acid methyl ester]

solubility thermodynamic ([1]; phosphate buffer): 398 µg/mL (≈ 752 µM)
Human Hepatic Clearance [2]: 6.12 mL/min/kg
SMILES: COC(=O)C1=C(CN2CC(F)(F)CCC2C(=O)O)NC(c2nccs2)=N[C@H]1c1ccc(F)cc1Cl (stereo partly drawn) [Example 7, (R)-6-(2-Carboxy-5,5-difluoro-piperidin-1-ylmethyl)-4-(2-chloro-4-fluoro-phenyl)-2-thiazol-2-yl-1,4-dihydro-pyrimidine-5-carboxylic acid methyl ester]
